# Entries after “also recorded” stand apart in the source; their conditions may differ.
# Key:
# TFEB = experiment: GFP-TFEB nuclear translocation (high-content screen, dose-response, confocal imaging); type: cell-based, human; settings: for TFEB nuclear accumulation by AMPK activators: GFP-TFEB HeLa cells; for hit status in the TFEB screen overlapping with the autophagy (GFP-LC3) screen: compounds added for 4 hr, overlap with top 30 hits of autophagy screen
# Protocol: GFP-TFEB HeLa cells were seeded in 384-well plates. Compounds were added for 4 hr the following day. Bafilomycin A1 (250 nM) treated cells were used as positive controls and DMSO-treated cells as negative controls. […] Images were collected using 405 nm and 488 nm laser lines with DAPI and FITC emission filters. Images were analyzed using the GE IN Cell Analyzer Workstation software. Briefly, nuclei were segmented using the Hoechst channel and the cytoplasm was segmented using the GFP channel. For each cell, the mean GFP intensity in each compartment was measured and used to calculate the nuclear to cytoplasmic (N/C) TFEB-GFP ratio. The same method as mentioned above was used to generate the top 30 compounds with highest condensed activity values and robust Z score values.
# GFP-TFEB HeLa cells treated with compounds or DMSO were fixed and stained with Hoechst. Images from at least 3 different fields per sample were acquired using a 40× objective on a Zeiss confocal microscope and analyzed with ImageJ. 20-30 cells were evaluated from each image for each sample, and 3 independent experiments were performed to generate the graphed values.
# [1] = test system: mice under fed and fast conditions; experiment: Short-term starvation and chloroquine-induced acute hepatic lipid accumulation in mice; type: in vivo, mouse; settings: overnight fast; CQ intraperitoneal; DG oral co-administration
# Protocol: SFIGS. […] (SFIG. 6A) The body weight (left y-axis, solid symbols) and food intake (right y-axis, open symbols) measured in normal-diet-fed mice treated with vehicle or 2.5 mg/kg DG. (SFIG. 6B) Drug release curves of AD (upper panel) and IKA (lower panel) in PBS. […] (SFIG. 6F) Cells were treated with various doses DG, AD and IKA for 4 hours, and cell viability was measured immediately or after 72 hours. Dose response curves were simulated using ImageJ. (SFIG. 6G) H&E staining of heart, spleen and kidney sections from mice treated with DG, AD, IKA and their corresponding controls. Scale bar, 100 μm. (SFIG. 6H) H&E staining of liver and heart sections as well as ORO and p62/SQSTM1 IHC staining of liver sections from mice under fed and fast conditions with orally injected DG and intraperitoneally injected CQ, individually and jointly, or their corresponding control (Saline). Scale bar, 50 μm. (SFIG. 6I) The body weight of mice after the treatment described in SFIG. 6H. (SFIGS. 6J-L) Total serum levels of triglyceride, cholesterol and glucose of mice after the treatment described in SFIG. 6G.
# HeLa cells = experiment: Cellular ROS level (CellROX Green); type: cell-based, human; settings: 4 hrs
# From the text: SFIGS. 5A-I. Small-molecule activators of TFEB engage different sources of Ca. (SFIG. 5A) HeLa cells were pretreated with or without N-acetyl-cysteine (NAC) for 1 hr and then treated with tert-butyl hydroperoxide (TBHP) or AD for 4 hrs. TBHP and NAC were used as positive and negative controls. A ROS-sensitive DNA dye CellROX Green was used to detect cellular ROS levels after these treatments. Endogenous TFEB localization was also shown. (SFIG. 5B) Quantification of the fluorescent intensity of CellROX Green in cells treated as in a was done by a plate reader. (SFIG. 5C) Quantification of endogenous TFEB nuclear translocation in SFIG. 5A. (SFIG. 5D) Cells were pretreated with or without 25 μM IP3R inhibitor Xestosporine C (Xesto) for 1 hr and then treated with DG, AD and IKA for indicated time. Quantification of TFEB translocation was shown in SFIG. 5E-G (graphs represent mean±s.d. **p<0.01, ***p<0.001, ****p<0.0001). (SFIG. 5H-I) RNA-interference were used to knock down inositol […] receptor type 1 (IP3R1) in GFP-TFEB cells before they were treated with DG, AD and IKA. siLONRF1 was used as a negative control. TFEB translocation percentage was quantified from images as shown in SFIG. 5I (mean±s.d. for n=3 independent experiments, ****p<0.0001). Scale bar, 20 μm.
# mTORC1 = experiment: TSC2 dependence of mTORC1 inhibition and TFEB activation in p53-/- and p53-/-, TSC2-/- MEFs; type: cell-based, mouse; settings: p53-/- vs p53-/-
structure (smiles),measurement,setting,value
"NC(=O)c1ncn([C@@H]2O[C@H](COP(=O)(O)O)[C@@H](O)[C@H]2O)c1N [AICAR, 5-aminoimidazole-4-carboxamide ribonucleotide, reference compound]",TFEB nuclear accumulation by AMPK activators,TFEB,sufficient to induce TFEB nuclear accumulation
"CCN(CC)CCCC(C)Nc1ccnc2cc(Cl)ccc12 (stereo not shown) [CQ, chloroquine]",fast-induced hepatic lipid accumulation,[1],exacerbated
"CC(C)(C)OO [TBHP, tert-Butyl hydroperoxide, reference compound]",ROS production,HeLa cells,comparable ROS production
"C[C@@H]1C[C@@H]([C@H](O)CC2CC(=O)NC(=O)C2)C(=O)[C@@H](C)C1 [cycloheximide, reference compound]",hit status in the TFEB screen overlapping with the autophagy (GFP-LC3) screen,TFEB,top 18 hits
"CN(C)C(=N)N=C(N)N [metformin, reference compound]",TFEB nuclear accumulation by AMPK activators,TFEB,sufficient to induce TFEB nuclear accumulation
"C[C@@H]1O[C@@H](O[C@@H]2C=C3CC[C@@H]4[C@H](CC[C@]5(C)[C@@H](c6ccc(=O)oc6)CC[C@]45O)[C@@]3(C)CC2)[C@H](O)[C@H](O)[C@H]1O [proscillaridin A, reference compound]",hit status in the TFEB screen overlapping with the autophagy (GFP-LC3) screen,TFEB,top 18 hits; also recorded: top scoring hits
same,dependence of mTORC1 inhibition / TFEB activation on TSC2,mTORC1,independent

# Source: patent US20200333357A1, “NOVEL TFEB PATHWAY AGONISTS FOR METABOLIC DISEASES AND AGEING” (The Board of Regents of the University of Texas System, priority 2017, published 2020)
